Reference: patent US9642787B2, “Method of inhibiting copper deposition on hair” (The Procter & Gamble Company, priority 2014, dated 2017)

Assays:
[1] = Formation Constant (Log KML) of metal chelant complex with copper; format: physicochemical; conditions: formation constant for copper, concentrations in mol/dm^3, logarithm
Source text: (§1) The Formation Constant of a metal chelant interaction is defined as: [formula] where: [ML]=concentration of metal ligand complex at equilibrium [M]=concentration of free metal ion [L]=concentration of free ligand in a fully deprotonated form KML=formation constant for the metal chelant complex. All concentrations are expressed in mol/dm^3. Formation Constants are conveniently expressed as logarithms.

[2] = Formation Constant (Log KML) of metal chelant complex with calcium; format: physicochemical; conditions: formation constant for calcium, concentrations in mol/dm^3, logarithm
Source text: as §1

Row | SMILES | Log KML Cu [1] | Log KML Ca [2]
1 | NC(=O)CC[C@H](N)C(=O)O [Glutamine] | 7.7 | –
2 | N[C@@H](Cc1c[nH]c2ccccc12)C(=O)O [Tryptophan] | 8.2 | –
3 | NCC(=O)O [Glycine] | 8.2 | 1.1
4 | C[C@H](N)C(=O)O [Alanine] | 8.1 | 1.3
5 | O=C(O)CC(NCCNC(CC(=O)O)C(=O)O)C(=O)O (centres unmarked) [EDDS, ethylenediamine-N,N′-disuccinic acid] | 18.4 | 4.6
6 | N[C@@H](CO)C(=O)O [Serine] | 7.9 | 1.4
7 | O=C(O)[C@@H]1CCCN1 [Proline] | 8.8 | –
8 | NC(=O)C[C@H](N)C(=O)O [Asparagine] | 7.8 | –
9 | N[C@@H](Cc1c[nH]cn1)C(=O)O [Histidine] | 10.2 | 1.2
